Measurements from patent US4406902A, “Dipeptidase inhibitors” (Merck & Co., Inc., priority 1981, dated 1983).
pKi: −log10 of the molar value.

How the values were obtained:
[1] = target: T1, renal dipeptidase (E.C.3.4.13.11) (Sus scrofa, UniProt P22412); assay: in vitro screen: inhibition of hydrolysis of glycyldehydrophenylalanine (GDP) by solubilized dipeptidase from hog kidneys; format: biochemical; details: GDP 0.05 mM; pH 7.1; 37° C.; hog kidney dipeptidase; read-out: inhibitor binding constant, Ki (ki)
T1 construct: solubilized preparation of dipeptidase isolated from hog kidneys; from tissue; host or cells: hog kidney (solubilized, lyophilized enzyme preparation)
T1 sequence (P22412 17-409): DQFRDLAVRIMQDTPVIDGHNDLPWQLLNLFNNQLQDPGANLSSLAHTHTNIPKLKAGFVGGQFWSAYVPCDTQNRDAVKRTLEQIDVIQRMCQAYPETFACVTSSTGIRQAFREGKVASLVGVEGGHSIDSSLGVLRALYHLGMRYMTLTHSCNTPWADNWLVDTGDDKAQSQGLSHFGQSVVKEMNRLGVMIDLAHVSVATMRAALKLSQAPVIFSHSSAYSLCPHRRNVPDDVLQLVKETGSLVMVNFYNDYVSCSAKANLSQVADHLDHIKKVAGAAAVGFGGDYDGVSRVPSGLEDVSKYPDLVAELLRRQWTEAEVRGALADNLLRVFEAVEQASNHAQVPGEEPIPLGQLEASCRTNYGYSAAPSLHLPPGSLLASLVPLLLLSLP
Protocol: This measured the ability of compounds to inhibit hydrolysis of glycyldehydrophenylalanine (GDP) by a solubilized preparation of dipeptidase isolated from hog kidneys. The procedure is as follows: to a 1 ml. system containing 50 mM "MOPS" (3-(N-morpholino)propanesulfonic acid) buffer, pH 7.1, is added 5 μg of lyophilized enzyme, and the test compound at a final concentration of 0.1 mM. After a five minute incubation at 37° C., GDP is added to a final concentration of 0.05 mM. […] Inhibition of the enzyme is gauged by comparison to a standard run containing no inhibitor and is expressed as the inhibitor binding constant, Ki.

renal dipeptidase = target: T2, renal dipeptidase (Sus scrofa, UniProt P22412); assay: hydrolysis of GDP and thienamycin as substrates by renal dipeptidase; format: biochemical, hog; details: GDP compared with thienamycin
T2 construct: GPI-anchored homodimer
T2 sequence (P22412 17-384): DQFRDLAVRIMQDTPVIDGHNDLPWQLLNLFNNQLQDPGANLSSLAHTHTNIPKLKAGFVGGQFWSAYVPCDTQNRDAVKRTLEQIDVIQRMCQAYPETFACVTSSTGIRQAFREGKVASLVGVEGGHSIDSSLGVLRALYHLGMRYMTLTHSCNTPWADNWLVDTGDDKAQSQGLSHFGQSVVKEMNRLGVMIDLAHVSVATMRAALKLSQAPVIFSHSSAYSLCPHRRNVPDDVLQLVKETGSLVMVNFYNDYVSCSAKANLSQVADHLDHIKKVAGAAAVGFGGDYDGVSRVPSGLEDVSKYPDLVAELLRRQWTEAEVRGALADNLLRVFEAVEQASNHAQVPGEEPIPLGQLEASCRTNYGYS

[2] = disposition studies with thienamycin, its natural analogs and semi-synthetic derivatives (urinary recovery, plasma half-life); format: in vivo; details: mouse, rat, dog, chimpanzee, Rhesus monkey
Protocol: Chem., 205 65 (1932); see also Greenstein, J. P., Advances in Enzymology, Vol. VIII, Wiley-Interscience, (1948), New York, and Campbell, B. J.; Lin, Y-C., Davis, R. V. and Ballew, E., "The Purification and Properties of Particulate Renal Dipeptidase", Biochim. Biophys. Acta., 118, 371 (1966).
Urinary recovery of thienamycin was measured in all cases with the use of a cylinder or disc diffusion assay, conducted in a manner described in U.S. Pat. No. 3,950,357. This bioassay, with Staphylococcus aureus ATCC 6538 as the test organism, has a useful response range from 0.04 μg/ml to 3.0 μg/ml.

Row | Structure (SMILES) | pKi [1] | other results
1 | CC1(C)CC1C(=O)N/C(=C\CCCCSc1ccc(C(=O)O)cn1)C(=O)O (racemic) [Example 4, Racemic Z-7-(5-carboxy-2-pyridylthio)-2-(2,2-dimethylcyclopropanecarboxamido)-2-heptenoic acid] | 6.60 | –
2 | NCC(=O)NC(=Cc1ccccc1)C(=O)O [GDP, glycyldehydrophenylalanine] | – | maximal velocity of hydrolysis by renal dipeptidase (renal dipeptidase): much higher maximal velocity of hydrolysis
3 | C[C@@H](O)[C@H]1C(=O)N2C(C(=O)O)=C(SCCN)C[C@H]12 [thienamycin] | – | plasma half-life [2]: short plasma half-lives; urinary recovery [2]: low urinary recovery

Further lines, with some results ahead:

Row | pKi [1] | Structure (SMILES) | other results
4 | 7.40 | CC1(C)CC1C(=O)N/C(=C\CCCCSc1ncccc1C(=O)O)C(=O)O (racemic) [Example 3, Racemic Z-7-(3-carboxy-2-pyridylthio)-2-(2,2-dimethylcyclopropanecarboxamido)-2-heptenoic acid] | –
5 | 7.70 | CC1(C)CC1C(=O)N/C(=C\CCCCSc1ncccc1O)C(=O)O (single isomer, unassigned; (+)) [Example 2, (+)-Z-2-(2,2-Dimethylcyclopropanecarboxamido)-7-(3-hydroxy-2-pyridylthio)-2-heptenoic acid] | –
